Data: patent publication US7566717B2, “Substituted heterocyclic compounds” (Gilead Sciences, Inc., priority 2003, dated 2009)

Test system: Rat heart mitochondria (palmitoyl CoA oxidation)
Assay: Mitochondrial assay: palmitoyl CoA oxidation
Assay type: biochemical
Conditions: at 100 μM of test compound, 1-C14 palmitoyl CoA oxidation, 15 min at 30° C.
Protocol: Rat heart mitochondria were isolated by the method of Nedergard and Cannon (Methods in Enzymol. 55, 3, 1979).
Palmitoyl CoA oxidation—The Palmityl CoA oxidation was carried out in a total volume of 100 micro liters containing the following agents: 110 mM KCl, 33 mM Tris buffer at pH 8, 2 mM KPi, 2 mM MgCl2, 0.1 mM EDTA, 14.7 microM defatted BSA, 0.5 mM malic acid, 13 mM carnitine, 1 mM ADP, 52 micrograms of mitochondrial protein, and 16 microM 1-C14 palmitoyl CoA (Sp. Activity 60 mCi/mmole; 20 microCi/ml, using 5 microliters per assay). The compounds of this invention were added in a DMSO solution at the following concentrations: 100 micro molar, 30 micro molar, and 3 micro molar. In each assay, a DMSO control was used. After 15 min at 30° C., the enzymatic reaction was centrifuged (20,000 g for 1 min), and 70 microliters of the supernatant was added to an activated reverse phase silicic acid column (approximately 0.5 ml of silicic acid). The column was eluted with 2 ml of water, and 0.5 ml of the eluent was used for scintillation counting to determine the amount of C^14 trapped as C^14 bicarbonate ion.

Compound	Inhibition
Cc1cccc(C)c1NC(=O)CN1CCN(CC(O)CNC(=O)c2ccccc2F)CC1 (stereo not drawn) [N-(2,6-dimethylphenyl)-2-(4-{3-[(2-fluorophenyl)carbonylamino]-2-hydroxypropyl}piperazinyl)acetamide]	24%
Cc1cccc(C)c1NC(=O)CN1CCN(CC(O)CC2CCCCC2)CC1 (stereo not drawn) [N-(2,6-dimethylphenyl)-2-[4-(3-cyclohexyl-2-hydroxypropyl)piperazinyl]acetamide]	8%
Cc1cccc(C)c1NC(=O)CN1CCN(CC(O)CC(=O)Nc2ccccc2F)CC1 (stereo not drawn) [4-(4-{[N-(2,6-dimethylphenyl)carbamoyl]methyl}piperazinyl)-3-hydroxy-N-(2-fluorophenyl)butanamide]	36%
